O=Cc1ccc2c(c1)OCO2
solubility (mole fraction)
Conditions	in acetone	in chloroform	in ethanol	in isopropanol	in water
273.15 K	0.0521	0.427	0.0056	0.0174	0.000118
278.15 K	0.0655	0.477	0.0143	0.0227	0.000153
283.15 K	0.0876	0.531	0.0396	0.0332	0.00022
288.15 K	0.118	0.598	0.0697	0.0461	0.000277
293.15 K	0.155	0.693	0.123	0.0753	0.000393

Reference: BigSolDB 2.1
